Measured values published in patent US9782364B1, “Curcumin-based compositions and methods of use thereof” (priority 2015, dated 2017).

Tests used:
MSK1 = target: T1, MSK1 (Mus musculus, UniProt Q8C050); assay: Western blot of cytoplasmic and nuclear MSK1 and phospho-serine 376 MSK1 in LPS-induced BV2 microglia; format: cell-based; settings: BV2 cells, 22.0 μg/ml, 30 min pre-treatment then LPS 30 min
T1 construct: the cells were lysed and the cytoplasmic and nuclear protein fractions were collected; endogenous in cells; host or cells: BV2 microglia, LPS-induced
T1 sequence (Q8C050 whole entry): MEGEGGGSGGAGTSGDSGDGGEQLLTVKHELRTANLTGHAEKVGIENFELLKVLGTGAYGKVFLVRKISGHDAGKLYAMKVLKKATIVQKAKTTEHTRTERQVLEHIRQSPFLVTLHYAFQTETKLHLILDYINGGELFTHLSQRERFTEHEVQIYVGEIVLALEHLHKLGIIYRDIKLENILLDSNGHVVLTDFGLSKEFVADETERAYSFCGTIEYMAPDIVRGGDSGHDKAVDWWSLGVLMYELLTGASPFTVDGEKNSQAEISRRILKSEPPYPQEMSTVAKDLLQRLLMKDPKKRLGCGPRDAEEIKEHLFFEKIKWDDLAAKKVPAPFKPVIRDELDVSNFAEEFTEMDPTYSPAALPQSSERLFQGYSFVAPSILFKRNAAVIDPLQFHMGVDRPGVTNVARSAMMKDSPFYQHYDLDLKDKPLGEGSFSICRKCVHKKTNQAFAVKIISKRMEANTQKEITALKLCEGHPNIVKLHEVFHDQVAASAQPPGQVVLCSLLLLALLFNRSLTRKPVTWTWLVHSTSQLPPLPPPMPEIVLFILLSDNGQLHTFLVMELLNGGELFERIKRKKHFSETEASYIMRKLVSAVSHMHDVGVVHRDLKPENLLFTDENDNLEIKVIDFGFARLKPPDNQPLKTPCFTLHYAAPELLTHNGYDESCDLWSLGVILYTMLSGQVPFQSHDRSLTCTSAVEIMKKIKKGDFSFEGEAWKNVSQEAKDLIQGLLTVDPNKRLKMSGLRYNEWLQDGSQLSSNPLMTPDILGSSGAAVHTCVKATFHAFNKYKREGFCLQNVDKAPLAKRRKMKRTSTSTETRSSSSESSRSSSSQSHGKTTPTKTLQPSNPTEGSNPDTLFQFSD
Protocol: (§1) Western blot analysis was performed in multiple varying formats before optimization was achieved. The BV2 microglia cell line was cultured in Dulbecco's Modified Eagle's Medium (DMEM)—complete medium. The complete medium consisted of DMEM, 1% Ampicillin, and 10% Fetal Bovine Serum (FBS). BV2 microglia cells, at a cell count of approximately 2×10^6, were seeded in each well (6 wells per plate) with 2.0 ml complete medium and cultured overnight in a ThermaForma HepaFilter Series II Coe Incubator at 37° Celsius. Upon establishing confluence, subconfluent cells were washed out and the wells were prepared with drug pre-treatment after overnight incubation.
(§2) The test drugs (curcuminoids) were procured as follows: curcumin I research standard (03926) (ChromaDex Irvine, Calif. USA) (97.7% purity); curcumin II research standard (04230) (ChromaDex Irvine, Calif. USA) (97.3%); curcumin III research standard (B6938) (Sigma-Aldrich St. Louis, Mo., USA) (97.7% purity); curcumin extract (curcumin I—77.7%, curcumin II—16.9%, curcumin III—0.9%) research standard (03928) (ChromaDex Irvine, Calif. USA) (95.3% purity); and Lipopolysaccharide (LPS) from E. Coli (L2630) (Sigma-Aldrich St. Louis, Mo., USA).
Curcuminoids are not soluble in aqueous medium due to their hydrophobic characteristic. However, curcuminoid extracts are soluble in polar organic solvents, such as DMSO and acetone. In this Example, each curcuminoid preparation was first dissolved in DMSO. DMSO was used in the drug preparation at 0.2%. The drug/DMSO solution was subsequently dissolved in DMEM to achieve a final drug concentration for each curcuminoid preparation tested—22.0 μg/ml curcuminoid. […]
Total protein concentration for each fraction was determined using a Bio Rad Protein Assay that is based on the Bradford Assay (dye-binding method). […]
The targets analyzed in the Western Blot included NFkB-p65 and its nucleocytoplasmic translocation, as well as kinases (including MSK1) and their covalent modifications upstream of and involved in the regulation of NFkB. […]

NFkB-p65 = assay: Western blot of cytoplasmic and nuclear NFkB-p65 and phospho-serine 276 NFkB-p65 in LPS-induced BV2 microglia; format: cell-based; settings: BV2 cells, 22.0 μg/ml, 30 min pre-treatment then LPS 30 min; for inhibition of NFkB-p65 nucleotranslocation (cytosolic and nuclear NFkB-p65 levels): FIGS. 3 and 4; for inhibition of NFkB-p65 serine 276 phosphorylation: cytoplasmic and nuclear, FIGS. 5 and 6
Protocol: as §1, §2
Curcuminoids are not soluble in aqueous medium due to their hydrophobic characteristic. However, curcuminoid extracts are soluble in polar organic solvents, such as DMSO and acetone. In this Example, each curcuminoid preparation was first dissolved in DMSO. DMSO was used in the drug preparation at 0.2%. The drug/DMSO solution was subsequently dissolved in DMEM to achieve a final drug concentration for each curcuminoid preparation tested—22.0 μg/ml curcuminoid. The DMEM/drug solution was used to replace the culture DMEM well medium and incubated for 30 minutes at 37-degrees Celsius in a ThermaForma incubator. At 31 minutes, lipopolysaccharide (LPS at […] final well concentration) induction of the cells was executed, except for the DMSO-only well to stimulate cell response amidst drug pre-treatment and without drug treatment.
The plates were then incubated for another 30 minutes after LPS stimulation. Upon removal from incubation, the cell medium was carefully removed and cells were washed, scraped, and collected with phosphate-buffered saline (PBS). Using a ThermoFisher Scientific NE-PER Nuclear and Cytoplasmic Extraction Kit (obtained from ThermoFisher Scientific Burlington, Ontario Canada), the cells were lysed and the cytoplasmic and nuclear protein fractions were collected and separated with the intention of probing each fraction for subcellular changes in cytoplasmic and nuclear proteins (as described further below).
Total protein concentration for each fraction was determined using a Bio Rad Protein Assay that is based on the Bradford Assay (dye-binding method). The total protein concentration determination was made prior to test sample preparation for gel electrophoresis execution (described below). The protein concentration colorimetric assay kit was purchased from Bio Rad Laboratories Canada Ltd. (Montreal, Quebec Canada). Each test sample was then prepared for loading and subjected to gel electrophoresis (SDS-PAGE) using a BioRad stain free gel system (Catalog No. 161-0181) and subsequently transferred/blotted to a nitrocellulose membrane (ThermoFisher Scientific Product No. 88018), blocked, and prepared for primary antibody treatment for each target.
The targets analyzed in the Western Blot included NFkB-p65 and its nucleocytoplasmic translocation, as well as kinases (including MSK1) and their covalent modifications upstream of and involved in the regulation of NFkB. Antibodies against NFkB-p65 (Ab16502) were procured from Abcam Inc. (Toronto, Ontario, Canada) as a primary antibody to probe for total NFkB-p65 levels in both nuclear and cytoplasmic fractions. […]

| Compound | inhibition of MSK1 protein levels in the cytoplasm (MSK1; FIG. 7) | inhibition of MSK1 protein levels in the nucleus (MSK1; FIG. 8) | inhibition of NFkB-p65 nucleotranslocation (cytosolic and nuclear NFkB-p65 levels) (NFkB-p65) | inhibition of NFkB-p65 serine 276 phosphorylation (NFkB-p65) | inhibition of MSK1 serine 376 phosphorylation (MSK1; cytoplasmic and nuclear, FIGS. 9 and 10) |
| --- | --- | --- | --- | --- | --- |
| O=C(/C=C/c1ccc(O)cc1)CC(=O)/C=C/c1ccc(O)cc1 [curcumin III, (1E,6E)-1,7-bis(4-hydroxyphenyl)hepta-1,6-diene-3,5-dione] | significantly inhibited and downregulated | significantly inhibited and downregulated | not significantly inhibited | moderately inhibit |  |
| COc1cc(/C=C/C(=O)CC(=O)/C=C/c2ccc(O)cc2)ccc1O [curcumin II, (1E,6E)-1-(4-Hydroxy-3-methoxyphenyl)-7-(4-hydroxyphenyl)hepta-1,6-diene-3,5-dione] |  |  | not significantly inhibited | moderately inhibit | inhibit |
| COc1cc(/C=C/C(=O)/C=C(O)/C=C/c2ccc(O)c(OC)c2)ccc1O [curcumin I, (1E,6E)-1,7-Bis(4-hydroxy-3-methoxyphenyl)-1,6-heptadiene-3,5-dione] |  |  | not significantly inhibited | moderately inhibit |  |
